Source: ChEMBL document CHEMBL3407416, “Discovery of (R)-8-(1-(3,5-difluorophenylamino)ethyl)-N,N-dimethyl-2-morpholino-4-oxo-4H-chromene-6-carboxamide (AZD8186): a potent and selective inhibitor of PI3Kβ and PI3Kδ for the treatment of PTEN-deficient cancers” (J Med Chem, 2015)
The source made the active and inactive calls. The calls are words filed in the database; no cut-off is given here.

Experiments:
[1] = Oral bioavailability in dog at 30 umol/kg administered as propylene glycol; assay type: ADME, organism-based, Canis lupus familiaris; settings: in vivo
[2] = Lipophilicity, log D of the compound at pH 7.4 by shake-flask method; assay type: physicochemical; settings: buffer
[3] = target: T1, Phosphatidylinositol 4,5-bisphosphate 3-kinase catalytic subunit alpha isoform (Homo sapiens, UniProt P42336); assay: Inhibition of human recombinant PI3Kalpha using PIP2 by Kinase-Glo Plus assay
Target sequence in this assay (P42336 whole entry, canonical isoform): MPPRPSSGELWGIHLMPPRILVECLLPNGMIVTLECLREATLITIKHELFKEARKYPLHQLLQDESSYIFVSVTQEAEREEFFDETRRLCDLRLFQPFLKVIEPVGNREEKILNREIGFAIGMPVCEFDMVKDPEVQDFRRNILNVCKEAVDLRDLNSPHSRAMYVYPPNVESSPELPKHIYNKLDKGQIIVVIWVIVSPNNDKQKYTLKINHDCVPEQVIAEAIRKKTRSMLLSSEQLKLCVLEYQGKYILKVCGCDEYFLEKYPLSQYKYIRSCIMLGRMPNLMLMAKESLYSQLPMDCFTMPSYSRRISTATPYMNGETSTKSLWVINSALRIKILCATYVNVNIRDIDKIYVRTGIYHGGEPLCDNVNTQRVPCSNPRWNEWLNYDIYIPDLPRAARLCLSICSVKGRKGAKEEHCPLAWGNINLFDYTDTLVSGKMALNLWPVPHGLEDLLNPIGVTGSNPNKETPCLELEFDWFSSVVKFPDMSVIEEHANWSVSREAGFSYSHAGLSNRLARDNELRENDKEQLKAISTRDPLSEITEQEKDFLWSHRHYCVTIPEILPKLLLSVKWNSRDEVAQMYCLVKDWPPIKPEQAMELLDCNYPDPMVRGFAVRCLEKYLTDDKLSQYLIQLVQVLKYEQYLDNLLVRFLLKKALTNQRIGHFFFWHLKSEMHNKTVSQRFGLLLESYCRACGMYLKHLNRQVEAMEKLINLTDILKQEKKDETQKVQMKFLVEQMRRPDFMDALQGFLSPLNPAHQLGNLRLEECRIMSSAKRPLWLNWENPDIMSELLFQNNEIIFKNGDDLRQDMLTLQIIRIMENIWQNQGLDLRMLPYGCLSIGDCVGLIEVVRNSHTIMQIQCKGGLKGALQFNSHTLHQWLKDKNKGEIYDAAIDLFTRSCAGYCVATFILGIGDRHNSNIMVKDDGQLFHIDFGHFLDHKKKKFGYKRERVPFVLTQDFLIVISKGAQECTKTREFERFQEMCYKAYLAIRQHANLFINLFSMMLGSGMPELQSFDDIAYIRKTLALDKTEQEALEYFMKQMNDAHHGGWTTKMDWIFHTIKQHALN

[4] = target: T2, Phosphatidylinositol 4,5-bisphosphate 3-kinase catalytic subunit delta isoform (Homo sapiens, UniProt O00329); assay: Inhibition of human recombinant PI3Kdelta using PIP2 by Kinase-Glo Plus assay
T2 sequence (O00329 whole entry): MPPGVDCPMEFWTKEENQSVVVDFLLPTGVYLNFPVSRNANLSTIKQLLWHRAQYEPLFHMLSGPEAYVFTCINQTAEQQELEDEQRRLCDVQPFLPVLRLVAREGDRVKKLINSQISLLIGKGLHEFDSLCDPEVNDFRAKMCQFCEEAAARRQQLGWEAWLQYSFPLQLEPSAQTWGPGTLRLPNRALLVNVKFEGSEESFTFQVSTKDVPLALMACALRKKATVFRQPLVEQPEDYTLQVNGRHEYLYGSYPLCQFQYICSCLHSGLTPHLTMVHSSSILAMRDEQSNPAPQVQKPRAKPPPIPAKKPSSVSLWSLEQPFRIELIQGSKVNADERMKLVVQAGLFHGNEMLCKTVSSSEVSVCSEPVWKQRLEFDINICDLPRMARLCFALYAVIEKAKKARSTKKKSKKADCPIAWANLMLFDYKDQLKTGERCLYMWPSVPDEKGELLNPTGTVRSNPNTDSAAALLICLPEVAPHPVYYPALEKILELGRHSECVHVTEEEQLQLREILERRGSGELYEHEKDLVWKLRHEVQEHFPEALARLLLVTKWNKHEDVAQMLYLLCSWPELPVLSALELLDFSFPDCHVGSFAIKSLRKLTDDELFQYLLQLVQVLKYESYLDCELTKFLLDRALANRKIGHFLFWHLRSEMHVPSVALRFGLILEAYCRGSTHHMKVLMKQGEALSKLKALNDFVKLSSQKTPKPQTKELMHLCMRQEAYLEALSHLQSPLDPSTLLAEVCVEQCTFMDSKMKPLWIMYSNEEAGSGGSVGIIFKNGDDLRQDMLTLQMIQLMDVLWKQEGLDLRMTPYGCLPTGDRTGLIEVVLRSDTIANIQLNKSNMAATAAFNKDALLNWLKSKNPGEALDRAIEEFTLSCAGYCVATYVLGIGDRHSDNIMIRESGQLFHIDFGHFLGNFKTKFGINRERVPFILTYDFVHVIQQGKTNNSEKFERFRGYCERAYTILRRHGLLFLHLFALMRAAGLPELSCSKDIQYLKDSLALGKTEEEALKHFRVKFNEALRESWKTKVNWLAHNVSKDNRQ

[5] = Apparent permeability from apical to basolateral side of human Caco2 cells; assay type: ADME, cell-based; settings: Caco-2, read-out: permeability
[6] = target: Phosphatidylinositol 4,5-bisphosphate 3-kinase catalytic subunit gamma isoform (Homo sapiens, UniProt P48736); assay: Inhibition of human recombinant PI3Kgamma using PIP2 by Kinase-Glo Plus assay
[7] = Intrinsic clearance in cryopreserved human hepatocytes measured per 10^6 cells; assay type: ADME, cell-based, Hepatocyte; settings: read-out: CLH
[8] = Fraction unbound in mouse plasma; assay type: ADME, cell-free
[9] = target: T3, Phosphatidylinositol 4,5-bisphosphate 3-kinase catalytic subunit beta isoform (Homo sapiens, UniProt P42338); assay: Inhibition of PI3Kbeta in PTEN-null human MDA-MB-468 cells assessed as inhibition of Akt phosphorylation after 2 hrs; assay type: cell-based
[10] = Clearance in mouse at 5 umol/kg, iv administered as bolus dose in 20 to 30% DMA in PBS; assay type: ADME, organism-based; settings: in vivo
[11] = Oral bioavailability in mouse at 30 umol/kg administered as propylene glycol; assay type: ADME, organism-based; settings: in vivo
[12] = target: T1, Phosphatidylinositol 4,5-bisphosphate 3-kinase catalytic subunit alpha isoform; assay: Inhibition of PI3Kalpha mutant human BT474 cells assessed as inhibition of Akt phosphorylation at […] after 2 hrs; assay type: cell-based; settings: bt-474
Target sequence in this assay (P42336 whole entry, looked up, canonical isoform): as the sequence (P42336 whole entry, canonical isoform) above

[13] = AUC in mouse at 30 umol/kg, po administered as propylene glycol; assay type: ADME, organism-based; settings: plasma
Mus musculus [14] = assay: Intrinsic clearance in mouse at 5 umol/kg, iv administered as bolus dose in 20 to 30% DMA in PBS; assay type: ADME, organism-based; settings: in vivo
[15] = Fraction unbound in human plasma; assay type: ADME, cell-free
Canis familiaris = assay: Intrinsic clearance in dog at 5 umol/kg, iv administered as bolus dose in 20 to 30% DMA in PBS; assay type: ADME, organism-based, Canis lupus familiaris; settings: in vivo
[16] = target: T3, Phosphatidylinositol 4,5-bisphosphate 3-kinase catalytic subunit beta isoform; assay: Inhibition of human recombinant PI3Kbeta using PIP2 by Kinase-Glo Plus assay
[17] = Volume of distribution in mouse at 5 umol/kg, iv administered as bolus dose in 20 to 30% DMA in PBS; assay type: ADME, organism-based; settings: in vivo
[18] = Fraction unbound in dog plasma; assay type: ADME, cell-free, Canis lupus familiaris
[19] = Volume of distribution in dog at 5 umol/kg, iv administered as bolus dose in 20 to 30% DMA in PBS; assay type: ADME, organism-based, Canis lupus familiaris; settings: in vivo
[20] = Clearance in dog at 5 umol/kg, iv administered as bolus dose in 20 to 30% DMA in PBS; assay type: ADME, organism-based, Canis lupus familiaris; settings: in vivo
BT-474 = assay: Selectivity ratio of IC50 for human PI3Kbeta in human MDA-MB-468 cells to IC50 for PI3Kalpha in human BT474 cells; assay type: cell-based
[21] = target: T4, Voltage-gated inwardly rectifying potassium channel KCNH2 (Homo sapiens, UniProt Q12809); assay: Inhibition of human ERG channel
[22] = target: T2, Phosphatidylinositol 4,5-bisphosphate 3-kinase catalytic subunit delta isoform; assay: Inhibition of PI3Kdelta in human Jeko B cells assessed as inhibition of Akt phosphorylation after 2 hrs; assay type: cell-based
[23] = target: T4, Voltage-gated inwardly rectifying potassium channel KCNH2; assay: Inhibition of human ERG channel at 100 uM
Mus musculus [24] = assay: Inhibition of Akt phosphorylation at Ser473 in PTEN-deficient human PC3 cells xenograft mouse model at 100 mg/kg, po single dose measured up to 8 hrs; assay type: functional, organism-based; set-up: dose 100 mg/kg; settings: PC-3
PC-3 [25] = assay: Antitumor activity against human PC3 cells xenograft mouse model assessed as inhibition of tumor growth at 60 mg/kg, po bid in presence of 1-aminobenzotriazole; assay type: functional, organism-based; set-up: dose 60 mg/kg
PC-3 [26] = assay: Antitumor activity against human PC3 cells xenograft mouse model assessed as inhibition of tumor growth at 30 mg/kg, po bid in presence of 1-aminobenzotriazole; assay type: functional, organism-based; set-up: dose 30 mg/kg

Sequence of Phosphatidylinositol 4,5-bisphosphate 3-kinase catalytic subunit gamma isoform (P48736 whole entry, canonical isoform): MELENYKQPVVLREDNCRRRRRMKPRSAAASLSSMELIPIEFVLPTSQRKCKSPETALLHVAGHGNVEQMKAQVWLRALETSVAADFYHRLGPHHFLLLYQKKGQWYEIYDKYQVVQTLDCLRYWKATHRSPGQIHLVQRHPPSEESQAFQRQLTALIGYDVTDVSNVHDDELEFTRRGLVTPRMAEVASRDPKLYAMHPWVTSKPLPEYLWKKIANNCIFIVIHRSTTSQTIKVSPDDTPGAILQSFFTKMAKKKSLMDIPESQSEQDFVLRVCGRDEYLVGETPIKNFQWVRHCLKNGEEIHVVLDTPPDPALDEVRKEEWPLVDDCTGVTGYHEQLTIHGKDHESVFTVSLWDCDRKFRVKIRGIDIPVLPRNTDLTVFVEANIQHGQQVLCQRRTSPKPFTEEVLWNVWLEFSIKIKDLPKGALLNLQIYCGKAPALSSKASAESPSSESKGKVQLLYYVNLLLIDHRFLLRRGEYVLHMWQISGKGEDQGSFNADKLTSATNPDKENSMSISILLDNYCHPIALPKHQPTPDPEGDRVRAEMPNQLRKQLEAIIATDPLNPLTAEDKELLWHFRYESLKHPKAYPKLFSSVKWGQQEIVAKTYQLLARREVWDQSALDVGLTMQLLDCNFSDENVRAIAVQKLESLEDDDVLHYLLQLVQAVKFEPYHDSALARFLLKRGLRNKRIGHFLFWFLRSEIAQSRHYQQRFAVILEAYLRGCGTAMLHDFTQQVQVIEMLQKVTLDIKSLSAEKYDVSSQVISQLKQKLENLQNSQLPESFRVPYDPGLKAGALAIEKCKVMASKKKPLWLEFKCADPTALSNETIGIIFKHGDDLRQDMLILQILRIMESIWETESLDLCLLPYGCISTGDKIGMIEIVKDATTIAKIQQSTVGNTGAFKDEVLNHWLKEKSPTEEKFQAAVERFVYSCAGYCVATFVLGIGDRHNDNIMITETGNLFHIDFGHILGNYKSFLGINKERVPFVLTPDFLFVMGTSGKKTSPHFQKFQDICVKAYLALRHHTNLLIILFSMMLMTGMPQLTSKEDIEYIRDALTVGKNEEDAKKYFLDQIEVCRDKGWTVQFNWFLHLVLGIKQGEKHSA
T3 sequence (P42338 whole entry, canonical isoform): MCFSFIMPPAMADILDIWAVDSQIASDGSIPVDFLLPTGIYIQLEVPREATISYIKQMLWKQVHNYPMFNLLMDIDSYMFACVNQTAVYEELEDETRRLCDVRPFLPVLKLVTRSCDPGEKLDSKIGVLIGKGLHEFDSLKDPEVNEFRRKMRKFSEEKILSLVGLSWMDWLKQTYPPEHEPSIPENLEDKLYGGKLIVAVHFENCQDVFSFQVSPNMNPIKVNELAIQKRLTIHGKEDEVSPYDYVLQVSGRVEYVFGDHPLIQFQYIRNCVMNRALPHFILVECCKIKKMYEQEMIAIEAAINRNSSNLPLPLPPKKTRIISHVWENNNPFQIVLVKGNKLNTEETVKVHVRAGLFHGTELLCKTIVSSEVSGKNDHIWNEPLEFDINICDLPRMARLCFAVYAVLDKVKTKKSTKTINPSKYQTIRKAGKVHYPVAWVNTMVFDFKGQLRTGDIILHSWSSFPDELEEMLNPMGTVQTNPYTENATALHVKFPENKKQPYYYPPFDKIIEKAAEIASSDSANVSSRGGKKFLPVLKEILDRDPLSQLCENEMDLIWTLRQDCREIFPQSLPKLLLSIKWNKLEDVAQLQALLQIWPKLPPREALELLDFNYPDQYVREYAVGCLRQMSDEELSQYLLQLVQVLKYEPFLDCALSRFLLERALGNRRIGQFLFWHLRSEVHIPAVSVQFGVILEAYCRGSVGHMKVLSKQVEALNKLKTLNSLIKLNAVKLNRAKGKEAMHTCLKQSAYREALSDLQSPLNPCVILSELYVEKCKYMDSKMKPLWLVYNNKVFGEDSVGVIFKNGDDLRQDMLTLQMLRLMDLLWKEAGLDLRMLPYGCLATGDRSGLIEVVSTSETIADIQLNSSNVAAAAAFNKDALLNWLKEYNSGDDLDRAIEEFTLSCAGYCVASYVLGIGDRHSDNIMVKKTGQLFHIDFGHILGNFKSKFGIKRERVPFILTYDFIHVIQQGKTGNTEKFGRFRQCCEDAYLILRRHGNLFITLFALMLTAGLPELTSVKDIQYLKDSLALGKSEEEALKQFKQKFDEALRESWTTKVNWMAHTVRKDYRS
T4 sequence (Q12809 whole entry, canonical isoform): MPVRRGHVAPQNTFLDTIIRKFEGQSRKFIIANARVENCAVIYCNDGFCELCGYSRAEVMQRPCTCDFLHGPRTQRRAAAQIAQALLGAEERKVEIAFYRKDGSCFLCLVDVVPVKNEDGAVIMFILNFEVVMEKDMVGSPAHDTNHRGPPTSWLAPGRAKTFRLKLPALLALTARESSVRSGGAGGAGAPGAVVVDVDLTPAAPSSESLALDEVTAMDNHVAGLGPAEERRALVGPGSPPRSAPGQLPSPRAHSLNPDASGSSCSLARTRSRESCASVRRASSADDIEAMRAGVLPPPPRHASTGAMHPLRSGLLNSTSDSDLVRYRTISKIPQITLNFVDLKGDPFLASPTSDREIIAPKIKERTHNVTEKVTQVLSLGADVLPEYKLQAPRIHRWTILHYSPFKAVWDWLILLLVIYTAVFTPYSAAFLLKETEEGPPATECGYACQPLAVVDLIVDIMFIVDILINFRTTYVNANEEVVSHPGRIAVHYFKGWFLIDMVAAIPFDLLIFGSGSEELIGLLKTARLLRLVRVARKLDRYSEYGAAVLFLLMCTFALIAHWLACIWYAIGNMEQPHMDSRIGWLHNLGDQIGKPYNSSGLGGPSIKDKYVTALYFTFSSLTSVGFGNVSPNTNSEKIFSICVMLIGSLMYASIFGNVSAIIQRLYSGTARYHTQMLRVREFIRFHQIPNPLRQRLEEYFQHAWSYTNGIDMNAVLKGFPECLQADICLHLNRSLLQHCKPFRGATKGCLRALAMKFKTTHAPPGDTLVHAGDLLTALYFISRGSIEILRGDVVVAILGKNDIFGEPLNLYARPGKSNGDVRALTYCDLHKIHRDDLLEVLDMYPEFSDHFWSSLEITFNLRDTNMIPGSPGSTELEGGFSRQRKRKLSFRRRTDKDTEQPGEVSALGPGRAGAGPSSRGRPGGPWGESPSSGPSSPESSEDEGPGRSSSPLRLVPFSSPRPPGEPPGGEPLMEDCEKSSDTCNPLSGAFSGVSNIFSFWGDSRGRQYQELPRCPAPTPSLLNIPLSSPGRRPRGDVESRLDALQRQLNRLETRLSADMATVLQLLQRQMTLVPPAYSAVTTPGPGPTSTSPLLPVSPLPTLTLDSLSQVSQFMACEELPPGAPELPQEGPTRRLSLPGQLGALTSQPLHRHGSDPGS

Row | bioavailability [1] [%] | logD [2] | IC50 [3] [nM] | IC50 [4] [nM] | Papp A→B [5] [×10⁻⁶ cm/s] | IC50 [6] [nM] | hepatocyte CLint [7] [µL/min/1e6 cells] | fraction unbound [8] | IC50 [9] [nM] | clearance [10] [mL/min/kg] | bioavailability [11] [%] | IC50 [12] [nM] | AUC [13] [µM·h] | clearance (Mus musculus [14]) [mL/min/kg] | fraction unbound [15] | clearance (Canis familiaris) [mL/min/kg] | Vd [17] [L/kg] | fraction unbound [18] | Vd [19] [L/kg] | clearance [20] [mL/min/kg] | SMILES | further results
1 | 47 | 2.3 | 140 | 41 | 16 | 1500 | < 5 | 0.28 | 6 | 137 | 42 | 900 | 1.5 | 99 | 0.27 | 16 | 1.7 | 0.43 | 2.2 | 28 | C[C@@H](Nc1cc(F)cc(F)c1F)c1cc(C(=O)N(C)C)cc2c(=O)cc(N3CCOCC3)oc12 | IC50 [16]: 8 nM
2 | – | 2.2 | 93 | 80 | – | 3200 | < 3 | – | 35 | – | – | 3200 | – | – | – | – | – | – | – | – | CN(C)C(=O)c1cc(CNc2cc(F)cc(F)c2)c2oc(N3CCOCC3)cc(=O)c2c1 | Ratio IC50 (BT-474): 100; IC50 [16]: 8 nM
3 | 31 | 2.4 | 280 | 73 | 42 | 3500 | < 4 | 0.1 | – | 34 | 68 | 3000 | 8.6 | 37 | 0.12 | 17 | 2 | 0.16 | 2.2 | 27 | C[C@H](c1cc(C(=O)N(C)C)cc2c(=O)cc(N3CCOCC3)oc12)N(C)c1cc(F)cc(F)c1 | IC50 [21]: 19000 nM
4 | 23 | 2.3 | 35 | 12 | 8 | 675 | 4 | 0.16 | – | 77 | 18 | 752 | 1.2 | 73 | 0.19 | 11 | 1.3 | 0.31 | 2.2 | 36 | C[C@@H](Nc1cc(F)cc(F)c1)c1cc(C(=O)N(C)C)cc2c(=O)cc(N3CCOCC3)oc12 [AZD-8186] | IC50 [22]: 17 nM; inhibition (INH) [23]: Not Active; inhibition (Mus musculus [24]): Active; inhibition (PC-3 [25]): Active; inhibition (PC-3 [26]): Active
